Data from patent US6461613B2, “Methods and compositions for the selective regulation of chorionic prostanoids” (priority 1993, dated 2002).

Columns and labels:
Format in all cases: cell-based
human term placenta [1] = assay: Effect of enzyme inhibitors on prostanoid release from perifused human term placental explants (RIA); conditions: quinacrine 10 μM; for effect on PGFM release vs control / effect on TxB2 release vs control: EDTA 1 mM in perifusion medium; for effect on 6-keto-PGF1α release vs control / effect on PGE release vs control: EDTA 1 mM, NDGA 10 μM in perifusion medium
Procedure: Radioimmunoassays were performed in a fashion similar to what has been previously described (Siler-Khodr et al., 1986, Biol. Reprod., 35:312) which is specifically incorporated herein for this purpose, with specific exception as noted below. A perifusion model (described in Examples 2 and 3) was employed to determine placental cell response. Media collected from the perifusion samples prepared from placental tissues were assayed. […] All the samples from a given perifusion (placenta) were determined in the same assay. At the beginning of the fifth hour of the perifusion, Medium 199 in the experimental chambers was changed to Medium 199 containing quinacrine (10 μM), EDTA (1 mM), NDGA (10 μM) or indomethacin (50 μg/ml). Four replicated chambers were perifused with control medium and each of the experimental media. This experimental design was repeated in three different perifusions using placental tissues from three different patients according to the procedure described in Example 3. […] Term placentas were obtained and placed on ice immediately after vaginal delivery from patients having spontaneous labor and delivery without any known obstetrical or medical complications. Tissues were obtained in accordance with a protocol approved by the Institutional Review Board. Within 30 minutes, the placental tissues were dissected of decidua, chorionic plates and large fetal vessels on ice. The placental tissues were cut into small fragments (approximately 25 pieces having a total weight of approximately 1 g), rinsed free of blood by repeated washing with ice cold normal saline until clear in color, and the tissue fragments placed in a 3-ml tissue chamber, placed in a 37° C. water bath. […] This medium is hereafter referred to as Medium 199. […] Perifusion was performed for two hours prior to initiation of sample collection. In this fashion, all tissues were thoroughly washed and equilibrated. Samples were collected hourly, beginning at the start of the third hour, into 12×75 mm glass tubes containing 0.1 ml indomethacin and 1100 μg/ml dimethyl sulfoxide [DMSO]. It took approximately one hour for the input medium to pass through the perifusion tubing and chamber and to be collected in the sample tube, thus the dead volume of the system was approximately 1 ml. Collection of the effluent of the 20 chambers was done simultaneously, using an ISCO fraction collector Retriever III adapted with a 20-tube rack and manifold. The prostanoid release for a given chamber was expressed as the increase over the fourth-hour prostanoid release for that chamber. Because there may be differences in the amounts of blood vessels and connective tissue among placental explants, the release expressed per unit weight results in high variance between chambers. […] Thus, the release of each chamber was related to its functional competence at the time of treatment rather than its mass. The mean release for replicate chambers from a given placenta for each particular prostanoid in the presence of arachidonic acid or each of the various enzyme inhibitors was calculated and then the mean data for each of the three different placentas was averaged at each time point. Thus, each placenta was weighted equally in the statistical analyses. Two-way analysis of variance of the average response for each prostanoid for each dose of arachidonic acid or each enzyme inhibitor studied, at each time point, was performed. The normalized data were tested for homogeneity using Cohrna's Q test, and no significant deviation was found. Thus, for each prostanoid and each treatment, where there was a significant main effect or interaction, Dunnett's comparison test was applied to determine the point(s) of significant difference as compared to the control. P<0.05 was considered to be statistically significant.

human term placenta [2] = assay: IGF-I effect on prostanoid and hCG release from perifused human term placental explants
Procedure: Term placentas were obtained and processed as described herein. Seven replicate chambers were prepared and each perifused with Medium 199 containing 0.05% BSA, penicillin (100 U/ml), streptomycin (100 μg/ml), estradiol (200 ng/ml), progesterone (2000 ng/ml), dexamethasone (10^−8 M), and insulin (100 μU/ml), at a rate of 6 ml/hour for 10.5 hours. Steroids were first dissolved in ethanol at 10^−4M final concentration and taken to final dilution with BSA-containing medium. This medium is hereafter referred to as Medium 199. These concentrations of steroid were chosen because they are known by those in the obstetrical arts to simulate the intrauterine milieu in vivo in humans. The influx medium was aerated with 95% air and 5% CO2 throughout the perifusion. Perifusion at a rate of 6 ml/hr was performed for […] prior to initiation of sample collection. In this fashion, all tissues were thoroughly washed and equilibrated. Samples were collected every half-hour, beginning at the start of the fourth hour, into 12×75 mm glass tubes containing 0.1 ml indomethacin (1100 μg/ml dimethyl sulfoxide [DMSO]). Collection of the effluent of the seven chambers was done simultaneously, using an ISCO fraction collector Retriever III adapted with a rack having seven tubes and a manifold.
To study the effect of IGF-I on basal prostanoid release, ten minutes prior to the beginning of the fifth hour of the perifusion, Medium 199 in the experimental chambers was changed to Medium 199 containing IGF-I (10^−8 M). This dose of IGF-I was chosen from calculations of the inventor using the Km of the placental receptor for IGF-I. It took ten minutes for the input medium to pass through the perifusion tubing and chamber and to be collected in the sample tube. Three replicated chambers were perifused with experimental medium, whereas, in another four replicated chambers, the perifusion was continued with the control, Medium 199. This experimental design was repeated using placental tissues from three different patients each having a normal pregnancy.
Prostanoid recovery and stability was determined as described in Example 1. Prostanoid radioimmunoassay was also conducted as described in Example 1.
Hormonal values for a given chamber were normalized to the fifth-hour prostanoid or hCG release for that chamber, expressed as a percent release over the fifth-hour release. Because there may be differences in the amount of blood vessels and connective tissue among placental explants, the release expressed per unit weight results in high variance between chambers. […] Thus, the release of each chamber was related to its functional competence at the time of treatment rather than to its mass. The mean release for replicate chambers from a given placenta for each particular hormone in the presence of IGF-I at each time point was calculated and the mean data for each of the three different placentas were averaged at each time point. Thus, each placenta was weighed equally in the statistical analyses. Similar calculations were done for the controls as for the experimental chambers. For each hormone studied, these average normalized data were tested for homogeneity, using Bartlett's test, and if significant deviation was found, the data were log-transformed prior to statistical analysis. Two-way analysis of variance was used to determine if there was significant main effect or interaction.
In addition, the cumulative release for each hormone from each placenta for each treatment was calculated. One-way analysis of variance was used to test for statistical effects of treatment. The points of significant variation were determined using the Student-Newman-Keuls test.

human term placenta [3] = assay: Dose-related action of IGF-I on basal prostanoid production from perifused human term placenta
Procedure: The dose-related effect of IGF-I on placental prostanoids was studied with the perifusion system previously described herein. Normal term deliveries were perifused with a defined Medium 199 containing no phenol red nor exogenous hormonal factors other than 100μU/ml of insulin, estradiol (200 ng/ml), progesterone (4000 ng/ml) and dexamethasone (10^−8). These doses were chosen to emulate the normal term placental environment. Replicate chambers for the control (n=4) and treatment (n=3) explants for each placenta were made. Following a five-hour perifusion at 6 ml/hr with basal media, IGF-I (5, 10, 20, 40 or 80 ng/ml) was added to the triplicate chambers and sample collection continued every 30 minutes for another five hours. The average hormonal response for the replicate chambers of the control and the IGF-I treated explants was calculated and then the mean (±SEM) response for the different placentas with and without treatment was computed and the results compared. […] TxB2 was inhibited at even 10 ng/ml of IGF-I.

human term placenta [4] = assay: Effect of arachidonic acid on prostanoid release from perifused human term placental explants
Procedure: Radioimmunoassays were performed in a fashion similar to what has been previously described (Siler-Khodr et al., 1986, Biol. Reprod., 35:312) which is specifically incorporated herein for this purpose, with specific exception as noted below. A perifusion model (described in Examples 2 and 3) was employed to determine placental cell response. Media collected from the perifusion samples prepared from placental tissues were assayed. After an initial pilot study of the prostanoid release of each of the perifusion placental tissue media samples collected hourly, samples from hours 3, 4, 5, 6, 8 and 12 of the perifusion were chosen for assay and for data analysis. All the samples from a given perifusion (placenta) were determined in the same assay.
The effect of exogenous arachidonic acid on basal prostanoid release was studied by perifusing placental tissue from the beginning of the fifth hour of the perifusion, with Medium 199 containing arachidonic acid (0.2, 1.0 or 10 μg/ml). Arachidonic acid was dissolved in ethanol such that 0.02 ml ethanol per 100 ml of Medium 199 was needed to obtain these concentrations, and the resulting ethanol concentration was 0.02%. The control medium was also made to be 0.02% ethanol for valid comparison of the arachidonic acid parameter only. Four replicated chambers were perifused with control medium and each of the experimental arachidonic acid media. This experimental design was repeated using placental tissues from three different patients.
Briefly, term placenta were obtained and placed on ice immediately after vaginal delivery from patients having spontaneous labor and delivery without any known obstetrical or medical complications. Tissues were obtained in accordance with a protocol approved by the Institutional Review Board. Within 30 minutes, the placental tissues were dissected of decidua, chorionic plates and large fetal vessels on ice. The placental tissues were cut into small fragments (approximately 25 pieces having a total weight of approximately 1 g), rinsed free of blood by repeated washing with ice cold normal saline until clear in color, and the tissue fragments placed in a 3-ml tissue chamber, placed in a 37° C. water bath. Twenty replicate chambers were prepared and each perifused with Medium 199 containing 0.05% BSA, 100 U penicillin and 100 μg streptomycin per ml at a rate of 1 ml per hour for 12 hours. This medium is hereafter referred to as Medium 199. The influx medium was aerated with 95% air and 5% CO2 throughout the perifusion. Perifusion was performed for two hours prior to initiation of sample collection. In this fashion, all tissues were thoroughly washed and equilibrated. Samples were collected hourly, beginning at the start of the third hour, into 12×75 mm glass tubes containing 0.1 ml indomethacin and 1100 μg/ml dimethyl sulfoxide [DMSO]. It took approximately one hour for the input medium to pass through the perifusion tubing and chamber and to be collected in the sample tube, thus the dead volume of the system was approximately 1 ml. Collection of the effluent of the 20 chambers was done simultaneously, using an ISCO fraction collector Retriever III adapted with a 20-tube rack and manifold.
The prostanoid release for a given chamber was expressed as the increase over the fourth-hour prostanoid release for that chamber. Because there may be differences in the amounts of blood vessels and connective tissue among placental explants, the release expressed per unit weight results in high variance between chambers. […] Thus, the release of each chamber was related to its functional competence at the time of treatment rather than its mass.
The mean release for replicate chambers from a given placenta for each particular prostanoid in the presence of arachidonic acid or each of the various enzyme inhibitors was calculated and then the mean data for each of the three different placentas was averaged at each time point. […]

[5] = arachidonic acid 10 μg/ml, within three hours of exposure

## CCN(CC)CCCC(C)Nc1c2ccc(Cl)cc2nc2ccc(OC)cc12 (centres unmarked) [quinacrine]
Human term placenta [1]
  effect on PGFM release vs control: no significant effect
  effect on TxB2 release vs control: no significant effect
  effect on 6-keto-PGF1α release vs control: no significant effect
  effect on PGE release vs control: no significant effect
Human term placenta [1]; first hour of exposure
  effect on PGF release vs control: significant inhibition

## Insulin like growth factor-I [IGF-I]
Human term placenta [2]; IGF-I 10^−8 M
  cumulative release of the other hormones studied (PGE, PGFM, 6-keto-PGF1α, hCG) vs control: no significant change
  effect on PGE release: not affected
  effect on release of hCG compared to controls: did not affect
  hCG release: 55 % of the fifth-hour release
Human term placenta [2]; IGF-I 10^−8 M treated tissues
  PGE release: 228 % of the fifth-hour release
Human term placenta [2]; IGF-I 10^−8 M, P<0.01
  cumulative release of TxB2 vs control: significant reduction
Human term placenta [2]; IGF-I 10^−8 M, P<0.05
  cumulative release of PGF vs control: significant reduction
Human term placenta [2]; IGF-I 10^−8 M, by the fifth hour of treatment
  TxB2 release: 85 % of the control's release
Human term placenta [2]; IGF-I 10^−8 M, by the fifth hour of treatment, normalized to fifth-hour release
  PGF release: 116%
Human term placenta [2]; IGF-I 10^−8 M, during the five hours
  6-keto-PGF1α release: 146 % of the fifth-hour release
Human term placenta [2]; IGF-I 10^−8 M, five hours of perifusion
  effect on PGFM release: unchanged
Human term placenta [2]; IGF-I 10^−8 M, following treatment
  time to significant inhibition of TxB2 release: ≤ 150 min
Human term placenta [2]; IGF-I 10^−8 M, more than five hours
  effect on release of 6-keto-PGF1α: not significantly altered
Human term placenta [2]; IGF-I 10^−8 M, significant from the third hour
  effect on release of PGF: significantly (P<0.01) inhibited
Human term placenta [3]; IGF-I 10 ng/ml
  effect on TxB2: inhibited
Human term placenta [3]; IGF-I 5-80 ng/ml
  effect on PGF production: greatly reduced
Human term placenta [3]; IGF-I 10^−8 M
  greatest inhibition of TxB2 production: 70 % of the basal release
Human term placenta [3]; IGF-I at each dose (5, 10, 20, 40 or 80 ng/ml)
  effect on TxB2 production: statistically significant inhibition
Human term placenta [3]; high dose of IGF-I
  effect on PGE: small reduction
Human term placenta [3]; on the order of
  molar concentration producing a selective pharmacological affect on human placental tissue: ~10^−9 molar

## O=C(O)CN(CCN(CC(=O)O)CC(=O)O)CC(=O)O [EDTA, ethylene diamino tetraacetic acid]
Human term placenta [1]
  effect on PGFM release vs control: did not reduce
  effect on TxB2 release vs control: did not reduce
  effect on 6-keto-PGF1α release vs control: significant inhibition
  effect on PGE release vs control: did not reduce

## CC(Cc1ccc(O)c(O)c1)C(C)Cc1ccc(O)c(O)c1 (centres unmarked) [NDGA, nordihydroguaiaretic acid]
Human term placenta [1]
  effect on 6-keto-PGF1α release vs control: significant inhibition
  effect on PGE release vs control: inhibited

## CCCCC/C=C\C/C=C\C/C=C\C/C=C\CCCC(=O)O [arachidonic acid]
Human term placenta [4]; arachidonic acid 0.2 μg/ml
  effect on prostanoid production: no significant effect
Human term placenta [4]; arachidonic acid 1.0 μg/ml
  effect on prostanoid production: no significant effect
Human term placenta [4]; [5]
  effect on PGE release: significant increase
  effect on PGF release: significant increase
Human term placenta [4]; arachidonic acid 0.2-10 μg/ml
  effect on 6-keto-PGF1α: no significant effect
  effect on PGFM: no significant effect
  effect on TxB2: no significant effect
